Among the data in doi:10.1101/2020.10.13.337410v3, “Agonist efficiency from concentration-response curves: structural implications and applications” (biorxiv, 2021) are EC50 values, retold here.

This assay addresses T1, adult-type mouse AChR (α1-GFP, β, δ, ε), whole-cell (Mus musculus, UniProt P02716+P04756+P20782).
T1 construct: gene Chrna1; alpha1 with GFP encoded between M3 and M4; transient expression in HEK293, GFP-sorted cells; pentamer; no background mutations; with Acetylcholine receptor subunit beta
Description: automated whole-cell patch clamp (IonFlux […]), concentration-response. Format: cell-based.

T1 sequence (P20782 21-493): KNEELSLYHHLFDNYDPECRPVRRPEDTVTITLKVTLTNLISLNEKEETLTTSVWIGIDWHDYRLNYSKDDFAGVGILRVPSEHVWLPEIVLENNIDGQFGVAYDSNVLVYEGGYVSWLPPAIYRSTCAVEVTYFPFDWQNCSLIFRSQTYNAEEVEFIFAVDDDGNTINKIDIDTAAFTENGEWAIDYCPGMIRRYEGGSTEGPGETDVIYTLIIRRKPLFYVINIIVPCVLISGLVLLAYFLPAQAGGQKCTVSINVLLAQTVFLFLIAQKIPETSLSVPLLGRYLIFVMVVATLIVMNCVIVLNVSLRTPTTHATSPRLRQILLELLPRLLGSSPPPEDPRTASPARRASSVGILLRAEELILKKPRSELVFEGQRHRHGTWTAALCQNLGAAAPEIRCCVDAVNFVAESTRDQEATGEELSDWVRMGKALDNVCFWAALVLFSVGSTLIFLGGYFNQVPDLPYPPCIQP
T1 sequence (P02716 25-520): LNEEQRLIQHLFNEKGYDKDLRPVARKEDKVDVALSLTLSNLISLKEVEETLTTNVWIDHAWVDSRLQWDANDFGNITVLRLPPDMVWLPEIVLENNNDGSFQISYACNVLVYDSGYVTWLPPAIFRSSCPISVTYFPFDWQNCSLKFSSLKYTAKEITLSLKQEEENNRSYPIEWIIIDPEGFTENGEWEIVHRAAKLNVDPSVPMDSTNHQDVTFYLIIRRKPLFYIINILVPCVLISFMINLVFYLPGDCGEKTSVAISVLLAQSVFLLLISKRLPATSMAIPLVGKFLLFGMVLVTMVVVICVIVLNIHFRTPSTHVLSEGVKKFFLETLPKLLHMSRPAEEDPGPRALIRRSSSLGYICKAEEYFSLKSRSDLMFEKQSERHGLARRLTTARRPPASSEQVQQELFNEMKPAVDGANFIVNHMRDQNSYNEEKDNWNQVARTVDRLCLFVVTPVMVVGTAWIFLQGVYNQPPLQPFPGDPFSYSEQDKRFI
T1 sequence (P09690 24-501, further chain): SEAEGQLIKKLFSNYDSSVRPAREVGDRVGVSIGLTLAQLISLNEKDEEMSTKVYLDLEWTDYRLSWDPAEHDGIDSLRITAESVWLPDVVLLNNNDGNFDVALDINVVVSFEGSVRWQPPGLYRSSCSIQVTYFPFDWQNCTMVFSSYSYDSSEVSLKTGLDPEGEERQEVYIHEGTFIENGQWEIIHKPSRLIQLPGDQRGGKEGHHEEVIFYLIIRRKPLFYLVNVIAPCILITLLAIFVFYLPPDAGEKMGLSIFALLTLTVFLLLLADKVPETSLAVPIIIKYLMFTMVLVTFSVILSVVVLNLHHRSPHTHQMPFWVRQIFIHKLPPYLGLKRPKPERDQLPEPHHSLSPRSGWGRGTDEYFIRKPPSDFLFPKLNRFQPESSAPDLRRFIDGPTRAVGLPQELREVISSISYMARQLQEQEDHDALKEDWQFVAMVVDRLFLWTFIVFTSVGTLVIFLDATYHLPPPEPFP
T1 sequence (P04756 21-457): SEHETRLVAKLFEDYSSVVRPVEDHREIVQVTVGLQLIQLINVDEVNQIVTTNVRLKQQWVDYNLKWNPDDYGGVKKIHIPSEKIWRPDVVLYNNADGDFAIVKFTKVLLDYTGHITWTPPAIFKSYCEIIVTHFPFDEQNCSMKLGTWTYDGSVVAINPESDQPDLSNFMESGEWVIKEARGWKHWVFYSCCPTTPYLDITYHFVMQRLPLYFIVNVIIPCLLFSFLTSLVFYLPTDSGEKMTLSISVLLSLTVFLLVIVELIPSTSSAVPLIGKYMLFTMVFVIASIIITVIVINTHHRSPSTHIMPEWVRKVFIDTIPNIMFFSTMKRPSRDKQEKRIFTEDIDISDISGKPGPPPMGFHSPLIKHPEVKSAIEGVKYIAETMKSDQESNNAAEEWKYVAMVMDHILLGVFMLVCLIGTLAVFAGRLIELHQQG

In the case of `C[N+](C)(C)C` [TMA], the response was half-maximal at 843 ± 110 µM (EC50). As for `C[N+](C)(C)CCOC(N)=O` [CCh], a half-maximal response (EC50) required 72.2 ± 11 µM.
